Results as given in ChEMBL document CHEMBL2406955, “Synthesis and cytotoxic activities of novel hybrid 2-phenyl-3-alkylbenzofuran and imidazole/triazole compounds” (Bioorg Med Chem Lett, 2013).

Columns and labels:
[1] = tested on: HL-60; test: Cytotoxicity against human HL60 cells after 48 hrs by MTT assay; type: functional, cell-based; conditions: HL-60, 48 h
[2] = tested on: MCF7; test: Cytotoxicity against human MCF7 cells after 48 hrs by MTT assay; type: functional, cell-based; conditions: MCF7, 48 h
[3] = tested on: A549; test: Cytotoxicity against human A549 cells after 48 hrs by MTT assay; type: functional, cell-based; conditions: A549, 48 h
[4] = tested on: SMMC-7721; test: Cytotoxicity against human SMMC7721 cells after 48 hrs by MTT assay; type: functional, cell-based; conditions: SMMC-7721, 48 h
[5] = tested on: SW480; test: Cytotoxicity against human SW480 cells after 48 hrs by MTT assay; type: functional, cell-based; conditions: SW480, 48 h
[6] = target: Serine/threonine-protein kinase mTOR (Homo sapiens) (UniProt P42345); test: Inhibition of mTOR (unknown origin) assessed as ratio of cytoplasmic to nuclear level of eukaryotic initiation factor 4E
[7] = tested on: SW480; test: Ratio of cisplatin IC50 to compound IC50 for human SW480 cells; type: functional
[8] = tested on: MCF7; test: Ratio of cisplatin IC50 to compound IC50 for human MCF7 cells; type: functional

Structure (SMILES) | IC50 [1] [µM] | IC50 [2] [µM] | IC50 [3] [µM] | IC50 [4] [µM] | IC50 [5] [µM] | Ratio [6] | Ratio IC50 [7] | Ratio IC50 [8]
O=C(C[n+]1cn(Cc2c(-c3ccccc3)oc3ccccc23)c2ccccc21)c1ccc2ccccc2c1 | 2.34 | 3.24 | 4.5 | 2.63 | 3.61 |  |  | 
CCc1n(Cc2c(-c3ccccc3)oc3ccccc23)cc[n+]1CC(=O)c1ccccc1 | 2.09 | 7.53 | 12.5 | 5.01 | 11.9 |  |  | 
O=C(C[n+]1cn(Cc2c(-c3ccccc3)oc3ccccc23)c2ccccc21)c1ccccc1 | 1.97 | 3.92 | 12.2 | 8.46 | 3.44 |  |  | 
O=C(C[n+]1cn(Cc2c(-c3ccccc3)oc3ccccc23)c2ccccc21)c1ccc(F)cc1 | 2.03 | 3.13 | 11.8 | 9.41 | 3.29 |  |  | 
c1ccc(-c2oc3ccccc3c2Cn2cncn2)cc1 | > 40 | > 40 | > 40 | > 40 | > 40 |  |  | 
O=C(C[n+]1cnn(Cc2c(-c3ccccc3)oc3ccccc23)c1)c1ccc(F)cc1 | 9.67 | 16.4 | 15.1 | 9.21 | 16.8 |  |  | 
CCc1n(Cc2c(-c3ccccc3)oc3ccccc23)cc[n+]1CC(=O)c1ccc(Br)cc1 | 0.72 | 2.89 | 12.8 | 6.07 | 3.58 |  |  | 
O=C(C[n+]1ccn(Cc2c(-c3ccccc3)oc3ccccc23)c1)c1ccc(Br)cc1 | 1.57 | 3.65 | 13.8 | 17.8 | 3.36 |  |  | 
COc1ccc(C(=O)C[n+]2ccn(Cc3c(-c4ccccc4)oc4ccccc34)c2)cc1 | 2.28 | 10.3 | 16.3 | 16.5 | 11.9 | 1.12 |  | 
c1ccc(-c2oc3ccccc3c2Cn2cnc3ccccc32)cc1 | > 40 | > 40 | > 40 | > 40 | > 40 |  |  | 
O=C(C[n+]1cnn(Cc2c(-c3ccccc3)oc3ccccc23)c1)c1ccc(O)cc1 | > 40 | > 40 | > 40 | > 40 | > 40 |  |  | 
O=C(C[n+]1ccn(Cc2c(-c3ccccc3)oc3ccccc23)c1)c1ccccc1 | 2.49 | 15.5 | > 40 | 9.83 | 15.5 |  |  | 
Brc1ccccc1C[n+]1ccn(Cc2c(-c3ccccc3)oc3ccccc23)c1 | 1.86 | 5.58 | 11.2 | 6.61 | 10.3 |  |  | 
O=C(C[n+]1cn(Cc2c(-c3ccccc3)oc3ccccc23)c2ccccc21)c1ccc(O)cc1 | 13 | 16.2 | 34 | 20.7 | 18.2 |  |  | 
O=C(C[n+]1cnn(Cc2c(-c3ccccc3)oc3ccccc23)c1)c1ccc(Br)cc1 | 9.71 | 10.4 | 14.6 | 10.8 | 14.6 |  |  | 
Brc1ccccc1C[n+]1cnn(Cc2c(-c3ccccc3)oc3ccccc23)c1 | 9 | 16.3 | 33.1 | 21.9 | 18.9 |  |  | 
O=C(C[n+]1cn(Cc2c(-c3ccccc3)oc3ccccc23)c2ccccc21)c1ccc(Br)cc1 | 2.11 | 4.08 | 5.25 | 2.94 | 4.37 |  |  | 
CCc1n(Cc2c(-c3ccccc3)oc3ccccc23)cc[n+]1Cc1ccccc1Br.[Br-] | 0.08 | 0.51 | 0.55 | 0.52 | 0.47 | 1.07 | 40.1 | 40.8
CCc1nccn1Cc1c(-c2ccccc2)oc2ccccc12 | > 40 | > 40 | > 40 | > 40 | > 40 |  |  | 

Structure (SMILES) | IC50 [1] [µM] | IC50 [2] [µM] | IC50 [3] [µM] | IC50 [4] [µM] | IC50 [5] [µM] | Ratio [6] | Ratio IC50 [7] | Ratio IC50 [8]
Brc1ccccc1C[n+]1cn(Cc2c(-c3ccccc3)oc3ccccc23)c2ccccc21 | 0.64 | 4.78 | 3.34 | 2.1 | 5.56 | 1.52 |  | 
CCc1n(Cc2c(-c3ccccc3)oc3ccccc23)cc[n+]1CC(=O)c1ccc(O)cc1 | 13.2 | 17.4 | 27.1 | 13.1 | > 40 |  |  | 
O=C(C[n+]1ccn(Cc2c(-c3ccccc3)oc3ccccc23)c1)c1ccc2ccccc2c1 | 2.06 | 3.68 | 14 | 9.42 | 3.48 |  |  | 
COc1ccc(C(=O)C[n+]2cnn(Cc3c(-c4ccccc4)oc4ccccc34)c2)cc1 | 3.22 | 14.9 | 13.7 | 5.76 | 17.2 |  |  | 
CO[C@H]1C[C@@H]2CC[C@@H](C)[C@@](O)(O2)C(=O)C(=O)N2CCCC[C@H]2C(=O)O[C@H]([C@H](C)C[C@@H]2CC[C@@H](O)[C@H](OC)C2)CC(=O)[C@H](C)/C=C(\C)[C@@H](O)[C@@H](OC)C(=O)[C@H](C)C[C@H](C)/C=C/C=C/C=C/1C |  |  |  |  |  | 1.59 |  | 
c1ccc(C[n+]2cn(Cc3c(-c4ccccc4)oc4ccccc34)c3ccccc32)cc1 | 1.96 | 3.49 | 7.09 | 4.81 | 3.26 | 1.54 |  | 
c1ccc(C[n+]2cnn(Cc3c(-c4ccccc4)oc4ccccc34)c2)cc1 | > 40 | > 40 | > 40 | > 40 | > 40 |  |  | 
O=C(C[n+]1ccn(Cc2c(-c3ccccc3)oc3ccccc23)c1)c1ccc(O)cc1 | > 40 | > 40 | > 40 | > 40 | > 40 |  |  | 
CCc1n(Cc2c(-c3ccccc3)oc3ccccc23)cc[n+]1CC(=O)c1ccc(OC)cc1 | 0.58 | 3.17 | 12.9 | 11.8 | 5.69 |  |  | 
O=C(C[n+]1cnn(Cc2c(-c3ccccc3)oc3ccccc23)c1)c1ccccc1 | 3.51 | 14.7 | 13.7 | 5.76 | 17.1 | 1.11 |  | 
c1ccc(-c2oc3ccccc3c2Cn2ccnc2)cc1 | > 40 | > 40 | > 40 | > 40 | > 40 |  |  | 
CCCC[n+]1cnn(Cc2c(-c3ccccc3)oc3ccccc23)c1 | > 40 | > 40 | > 40 | > 40 | > 40 |  |  | 
O=C(C[n+]1cnn(Cc2c(-c3ccccc3)oc3ccccc23)c1)c1ccc2ccccc2c1 | 2.33 | 3.11 | 2.06 | 1.86 | 2.89 | 0.96 |  | 
O=C(c1ccccc1)C(c1ccccc1)[n+]1cnn(Cc2c(-c3ccccc3)oc3ccccc23)c1 (stereo unspecified) | 15.9 | 20.7 | 16.8 | 16.1 | 20.9 |  |  | 
CCc1n(Cc2c(-c3ccccc3)oc3ccccc23)cc[n+]1CC(=O)c1ccc(F)cc1 | 0.99 | 5.03 | 14.6 | 8.13 | 11.3 |  |  | 
COc1ccc(C(=O)C[n+]2cn(Cc3c(-c4ccccc4)oc4ccccc34)c3ccccc32)cc1 | 0.61 | 23.8 | 9.12 | 16.6 | > 40 | 1.32 |  | 
O=C(C[n+]1ccn(Cc2c(-c3ccccc3)oc3ccccc23)c1)c1ccc(F)cc1 | 2.98 | 14.6 | > 40 | 13.4 | 15.5 |  |  | 
CCc1n(Cc2c(-c3ccccc3)oc3ccccc23)cc[n+]1CC(=O)c1ccc2ccccc2c1 | 0.61 | 3.03 | 5.35 | 2.3 | 3.14 | 1.55 |  | 
